Source: PMC4585333, “Novel Regulator of Acylated Ghrelin, CF801, Reduces Weight Gain, Rebound Feeding after a Fast, and Adiposity in Mice” (Frontiers in Endocrinology, 2015)
Entries after “also recorded” stand apart in the source; their conditions may differ.

Assays:
[1] = molecular target: T1, mouse GOAT (mGOAT) (Mus musculus, UniProt P0C7A3); test: Fluorescence-based GOAT activity assay, mouse GOAT; format: biochemical; details: concentrations up to 10 μM; Sf9 membranes, 1.5 μM GSSFLCAcDan, 500 μM octanoyl-CoA, 30 min pre-incubation, 1 h room temperature, pH 7.0, HPLC fluorescence, triplicate; F(3,8) = 0.139, p > 0.05
T1 construct: made in house; host or cells: Sf9 insect cells (membrane fraction)
T1 sequence (P0C7A3 1-435): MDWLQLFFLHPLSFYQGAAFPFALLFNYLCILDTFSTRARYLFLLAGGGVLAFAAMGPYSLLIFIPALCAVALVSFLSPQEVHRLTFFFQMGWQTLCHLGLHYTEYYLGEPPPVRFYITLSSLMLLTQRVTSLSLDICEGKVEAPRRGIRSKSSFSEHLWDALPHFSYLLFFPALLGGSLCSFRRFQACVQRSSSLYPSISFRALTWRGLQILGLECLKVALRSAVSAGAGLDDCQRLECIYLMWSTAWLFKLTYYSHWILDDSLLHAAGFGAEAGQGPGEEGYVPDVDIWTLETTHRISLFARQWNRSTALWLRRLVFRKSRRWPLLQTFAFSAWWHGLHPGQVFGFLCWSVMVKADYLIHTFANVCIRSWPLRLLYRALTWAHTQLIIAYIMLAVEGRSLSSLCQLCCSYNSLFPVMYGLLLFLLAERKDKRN
Excerpt: The effects of CF801 on GOAT activity were examined using a previously validated fluorescence-based assay, and in comparison with octanoyl-(Dap3)-ghrelin (1–5)–NH2, a well characterized GOAT inhibitor ([56], [63]). In this assay, membrane fractions from Sf9 insect cells were transfected to express either human (hGOAT) or mouse GOAT (mGOAT). Membranes fractions were thawed on ice and passed through an 18-gage needle 10 times enriched using a previously described method ([63]). […] Assays were analyzed by reverse phase HPLC with fluorescence detection. […] The trials were run in triplicate, with the % activity calculated as the integrated fluorescence intensity of the octanoylated product in the CF801 or octanoyl-(Dap3)-ghrelin (1–5)–NH2 run normalized by the same quantity for the vehicle-only reaction. […]
Figure 3 Percent activity of human GOAT (A) and mouse GOAT (B) (obtained from membrane fractions from Sf9 cells expressing hGOAT and mGOAT, resepectively) when exposed to CF801 and octanoyl-(Dap3)-ghrelin (1–5)–NH2 using a fluorescence-based microsomal assay. GSSFLCAcDan was used as an acylation target with fluorescence measured by reverse phase HPLC with fluorescence detection. […] All values are expressed as mean ± SEM. ***p < 0.001 compared to vehicle control.

[2] = system: stomach-derived ghrelinoma (SG-1) cells; test: Cell-based ghrelin secretion assay (acyl ghrelin in medium, ELISA)
Protocol: Ghrelin secretion studies were performed in stomach-derived ghrelinoma (SG-1) cells, cultured as described previously ([61], [62]). Cells were plated at a density of 5 × 10^4 cells/mL/well on to 24-well plates pre-coated with poly-D-lysine (day 0). On day 2, the cells were treated with the indicated concentrations of test compound CF801, 24 h ahead of the test period and with 50 μM sodium octanoate–bovine serum albumin (BSA), 16 h ahead of the test period. On day 3, the medium was aspirated and the cells were treated with the same concentrations of CF801 in 500 μL serum-free DMEM (Life Technologies, Grand Island, NY, USA) supplemented with 5 mM glucose and 50 μM sodium octanoate–BSA. After a 6-h incubation, the medium was collected, placed on ice, and immediately centrifuged at 800 × g for 5 min. Hydrochloric acid was added to the supernatant to achieve a final concentration of 0.1 N (for stabilization of acyl ghrelin) and stored at −80°C until analysis. Assay for acyl ghrelin and total were performed using commercial ELISA kits (EMD Millipore Corporation, Billerica, MA, USA) according to the manufacturer’s instructions and read in a PowerWave XS Microplate spectrophotometer (BioTek Instruments, Inc., Winooski, VT, USA).
SG-1 cells are derived from stomach ghrelinomas induced by expression of the SV40 large T-antigen under the preproghrelin promoter. These cells retain many of the features of ghrelin cells within primary cultures of gastric mucosal cells from mice ([61]). They also show elevated expression of both preproghrelin and GOAT mRNA with high levels of acylated ghrelin synthesis and secretion ([61]). In order to test CF801’s ability to reduce acyl ghrelin secretion, we performed an in vitro cell-based assay using an SG-1 cell line as previously described ([61], [62]).
Figure 1 CF801 inhibits acyl ghrelin secretion from SG-1 cells following 24 h of incubation. […] All values are expressed as mean ± SEM. *p < 0.05, ***p < 0.001 significant difference in acyl ghrelin concentrations with CF801 treatment when compared to untreated control (n = 6 wells).

Sequence: GSAFLSPEHQRK KRRQRRR-NH2 [CF801]
- mGOAT activity with CF801 [1]: no inhibition was seen; also recorded: no effect
- acyl ghrelin secretion, 100 μM ([2]; 100 μM CF801, 24 h incubation, vs untreated control, n = 6 wells, p < 0.05): Significant decreases in secretion; also recorded: significant reductions in acyl ghrelin secretion
- acyl ghrelin secretion, 300 μM ([2]; 300 μM CF801, 24 h incubation, vs untreated control, n = 6 wells, p < 0.05): Significant decreases in secretion; also recorded: significant reductions in acyl ghrelin secretion
- acyl ghrelin secretion, 6-h incubation ([2]; 6 h incubation, p > 0.05, preliminary, data not shown, even at highest concentration of 300 μM): No significant effects; also recorded: no effect on acyl ghrelin secretion
